Data set [1] deals with AP-1 activity in JB6 P+ cells. As to the kind of experiment: AP-1 luciferase reporter assay, SUV-induced. It is filed as cell-based, mouse. Particulars: JB6 P+ cells, 1.25, 2.5 or 5 μM, dose-dependently. Here is the method: The cells were cultured, treated for 4 h with different concentrations of compound 1 and then exposed to SUV (60 kJ UVA/m^2 and 2.9 kJ UVB/m^2), followed by an additional 15-minute incubation. Cells were harvested and the levels of phosphorylated and total proteins were determined by Western blot analysis with specific antibodies as indicated. […] The cells were cultured and treated with different concentrations of compound 1 for 24 h. Cells were harvested and the levels of phosphorylated and total proteins were determined by Western blot analysis with specific antibodies as indicated. […] For the luciferase assay, JB6 P+ cells stably transfected with an AP-1 luciferase reporter plasmid were cultured. After starvation for 24 h, cells were treated for 1 h with compound 1 (0, 1.25, 2.5, or 5 μM). Cells were then exposed to SUV (60 kJ UVA/m^2 and 2.9 kJ UVB/m^2) and harvested 3 h later. Luciferase activity was measured and AP-1 activity is expressed relative to control cells without SUV treatment. […] Knockdown of TOPK in A431 cell line (left). […] Luciferase and 3-galactosidase activities were measured using reagents included in the reporter assay system (right). […] Significant differences were evaluated using one-way ANOVA and the asterisks (*) indicate a significant effect (*, p<0.05; **, p<0.001; ***, p<0.0001). […]

In a further data set the test system is SKH-1 hairless mice. As to the kind of experiment: SUV-induced mouse skin tumorigenesis, early-stage prevention model. It counts as in vivo. The protocol:
Tumor volume was calculated according to the following formula: tumor volume (mm^3)=length×width×height×0.52. […] For 4B and 4C, data are represented as mean values±S.D. and significant differences were determined by one-way ANOVA. The asterisk (*) indicates a significant decrease compared to the SUV only or the vehicle and SUV-treated groups (***, p<0.001). […] Dorsal trunk skin samples were harvested and stained with H&E (left panels) or with an antibody to detect PCNA (right panels). […] Expression of PCNA was quantified using Image-Pro Plus software and stained cells were counted from 5 separate areas on each slide (lower panel). An average of 3 samples was calculated per group. Data are expressed as mean percent of control±S.D. and the asterisks indicate a significant difference in PCNA expression (***, p<0.001). […] The expression levels of phosphorylated and total proteins were analyzed by Western blot.
Mice were weighed once a week until the end of the study at week 28. […] SKH-1 hairless mice were treated as described in Materials and Methods. The mice in the control groups (n=9) received no vehicle/no SUV (n=3), vehicle/no SUV (n=3), or 1 mg […]/no SUV (n=3), respectively. The mice in the SUV treated group received SUV only (n=12) and the mice in the vehicle/SUV-treated group (n=12) were treated with oil-in-water emulsion cream before SUV exposure. The mice in the 0.1 mg/SUV or 1 mg/SUV groups (n=12 each) received treatment with compound 1 (0.1 or 1 mg, respectively) before SUV exposure. The frequency of irradiation was set at 3 times a week for 15 weeks. The respective doses of oil-in-water emulsion cream or compound 1 were applied topically to the dorsal area. Tumor incidence and multiplicity were recorded weekly until the end of the experiment at week 28.
Female SKH-1 hairless mice were purchased from Charles River and were acclimated for 2 weeks before the study and had free access to food and water. All animals were maintained according to the guidelines approved by the University of Minnesota Institutional Animal Care and Use Committee (IACUC). The animals were housed in climate-controlled quarters with a 12-h light/dark cycle. The skin carcinogenesis experiments were conducted using 6-8 wk old mice with a mean body weight of 25 g. Skin carcinogenesis was induced by a solar simulated ultraviolet irradiation system. The SUV irradiation source (Q-Lab Corporation, Westlake, Ohio) emitted at wavelengths of 295 to 365 nm and the peak emission was 340 nm.
The two mouse models included an early-stage prevention model and a late-stage prevention model. These models were designed for detecting either the respective chemopreventive effect or the potential therapeutic value of compound 1 against SUV-induced skin damage and carcinogenesis. For the early-stage prevention study, SKH-1 mice were divided into 7 groups and an oil-in-water emulsion cream was applied topically as the vehicle with or without compound 1. The three control groups included 1) mice (n=3) not treated with vehicle or SUV; 2) mice (n=3) treated with vehicle but no SUV; and 3) mice (n=3) treated with 1 mg compound 1 in vehicle but not exposed to SUV. Experimental groups included 1) mice (n=12) treated with SUV only; 2) mice (n=12) treated with vehicle followed by SUV 1 h later; 3) mice (n=12 each group) treated with topical application of 0.1 or 1 mg of compound 1 in vehicle 1 h before SUV irradiation. The topical applications and SUV treatment were applied 3 times a week for a total of 15 weeks. At 15 weeks, SUV irradiation was discontinued and topical applications continued with tumor growth monitoring for an additional 13 weeks until week 28 at which time mice were euthanized and tissues harvested.
At week 1, mice were irradiated with SUV at a dose of 36 kJ/m^2 UVA and 1.8 kJ/m^2 UVB. At week 6, the dose of SUV reached 60 kJ/m^2 UVA and 2.9 kJ/m^2 UVB and this dose was maintained from week 6 to week 15. […]

SMILES strings stand for the structures.

With `O=C1Nc2ccc(C34CC5CC(CC(C5)C3)C4)cc2C1=NO` [compound 1, 5-(adamantan-1-yl)-3-(hydroxyimino)indolin-2-one], the “SUV-induced transactivation of AP-1” value in data set [1] is “inhibited”. In the data set with SKH-1 hairless mice (early-stage model (FIG. 4B)), the SUV-induced tumor volume entry is on record as “suppresses”. In addition, in the data set with SKH-1 hairless mice (early-stage model, 0.1 or 1 mg, H&E), the SUV-induced epidermal thickness result is recorded as “decreased”. Further, the “SUV-induced phosphorylation of ERK1/2, p38, and JNKs in mouse skin” value in the data set on SKH-1 hairless mice (early-stage model, Western blot) is “dramatically suppressed”. Further, the “expression of PCNA” value with SKH-1 hairless mice (early-stage model, immunohistochemistry of skin) is recorded as “decreased”. Moreover, the “average number of SUV-induced tumors” value in the data set with SKH-1 hairless mice (early-stage model, week 28 (FIG. 4C)) is reported as “suppresses”. The SUV-induced papilloma formation entry in the data set on SKH-1 hairless mice (early-stage prevention group, topical 0.1 or 1 mg) is recorded as “total inhibition”. In addition, the body weight result in the data set with SKH-1 hairless mice (topical application on dorsal skin, early-stage model, to week 28) is reported as “no effect on body weight”.

(Values after patent publication US10487054B2, “Therapeutic compounds” (REGENTS OF THE UNIVERSITY OF MINNESOTA, priority 2017, dated 2019).)
